Assay results reported in patent US12312334B2, “Quinoxaline compounds and uses thereof” (BOARD OF REGENTS OF THE UNIVERSITY OF NEBRASKA, priority 2017, dated 2025).
Like-named read-outs stand apart in the source and are kept apart here.

Tests used:
[1] = system: TNFα induced NFκB transcription activity; experiment: cell-based TNFα induced IKKβ mediated NFκB activation luciferase reporter assay; parameters: TNFα induced NFκB transcription activity % Inhibition: concentration or dose not given beside the values
From the text: Compound 13-197 has a structure:

HCT116 = experiment: growth inhibition assay, colon cancer cell line HCT116; format: cell-based; conditions: Homo sapiens, HCT-116
SW620 = experiment: growth inhibition assay, colon cancer cell line SW620; format: cell-based; conditions: Homo sapiens, SW-620
HT29 = experiment: growth inhibition assay, colon cancer cell line HT29; format: cell-based; conditions: Homo sapiens, HT-29
DLD1 = experiment: growth inhibition assay, colon cancer cell line DLD1; format: cell-based; conditions: Homo sapiens, DLD-1
MiaPaCa2 = experiment: growth inhibition assay, pancreatic cancer cell line MiaPaCa2; format: cell-based; conditions: Homo sapiens, MIA PaCa-2
AsPC1 = experiment: growth inhibition assay, pancreatic cancer cell line AsPC1; format: cell-based; conditions: Homo sapiens
Suit2 = experiment: growth inhibition assay, pancreatic cancer cell line Suit2; format: cell-based; conditions: SUIT-2
S2013 = experiment: growth inhibition assay, pancreatic cancer cell line S2013; format: cell-based
[2] = in-vitro metabolic stability in human liver S9 fraction; format: in vitro ADME; conditions: for microsomal CLint / half-life: human liver S-9 fraction; for microsomal CLint: read-out: intrinsic clearance
Procedure: (§1) A metabolic stability profile, as well as oral and intravenous dose pharmacokinetics in mice was characterized. The in-vitro metabolic stability of 39-100 was determined using human liver S9 fraction (XenoTech, LLC, USA). 7-hydroxycoumarin (glucuronidation and sulphation) and testosterone (CYP hydroxylation) were used as positive controls for in-vitro metabolic stability study. The oral and intravenous dose pharmacokinetic studies were performed in Balb/c mice. The oral dose of 39-100 was 10 mg/kg, and the intravenous dose was 1 mg/kg. Sample analysis was performed by liquid chromatography-tandem mass spectrometry (SCIEX QTRAP 4000 LC-MS/MS System). For metabolite identification, samples were acquired by MRM-information dependent acquisition-enhanced product ion (MRM-IDA-EPI) scans, enhanced mass spectrometry-IDA-EPI scans, neutral loss, and precursor ion scan methods. Metabolites of 39-100 were characterized by Analyst 1.6.2, LightSight 2.3.1, and ChemDraw Professional-15 software.

[3] = oral and intravenous dose pharmacokinetics in mice; format: in vivo, Balb/c mice; conditions: for MRT inf: read-out: MRT 0-∞
Procedure: as §1

HCT116 cancer cells = experiment: HCT116 colon tumor xenograft growth inhibition study; format: in vivo; conditions: HCT116 xenograft in athymic mice, 40 mg/kg for 2 weeks, preliminary results
Procedure: Colon tumor xenografts were established in immune deficient (athymic: 4-6 weeks old) mice. Briefly, exponentially growing (70-80% confluent) HCT116 cancer cells were trypsinized, counted using a hemocytometer and stained with trypan blue to ensure only healthy cells are counted. Cells in suspension were added to matrigel and 4×10^6 cells/100 μl of volume were injected into the flanks of mice. Post-injection, mice were monitored on a daily basis to determine tumor growth. The tumor onset and progression was examined through palpation. Tumor diameter was measured using digital calipers and the tumor volume (in mm^3) was calculated using the formula=(width)^2×length/2. Mice were randomly separated into two groups and were dosed with either vehicle or 40 mg/kg of 39-100 for 2 weeks.

[4] = Balb/c, mouse, plasma, Oral: 10 mg/kg

In the case of O=C(Nc1ccc(Br)cc1)Nc1ccc2nc(-c3ccco3)c(-c3ccco3)nc2c1 [13-197, reference compound], the “TNFα induced NFκB transcription activity % Inhibition” value [1] is reported as 32.9 ± 3.4%, the GI50 (HCT116) is reported as 8.8 ± 2.2 µM and the GI50 (SW620) is reported as 9.2 ± 2.5 µM. The GI50 (HT29) was 6.7 ± 1 µM, the GI50 (DLD1) was 10.9 ± 2.1 µM and the GI50 (MiaPaCa2) was 10 ± 2.2 µM. For the same compound, the GI50 (AsPC1) was 12 ± 4 µM, the GI50 (Suit2) was 10.7 ± 0.5 µM and the GI50 (S2013) was 9.1 ± 1.1 µM. For the same compound, the microsomal CLint ([2]; human liver S9 fraction) was 12.2 µL/min/mg and the half-life [2] was 0.95 h.
For O=C(Nc1ccc(Br)cc1)Nc1ccc2ncc(-c3cn[nH]c3)nc2c1 [39-09D], the “TNFα induced NFκB transcription activity % Inhibition” value [1] was 48.4 ± 2.8%.
With Cn1cc(-c2cnc3ccc(NC(=O)Nc4ccc(Br)cc4)cc3n2)cn1 [39-055] the “TNFα induced NFκB transcription activity % Inhibition” value [1] was 71.0 ± 4.8%.
In the case of Cn1cc(-c2cnc3cc(NC(=O)Nc4ccc(Br)cc4)ccc3n2)cn1 [39-061], the “TNFα induced NFκB transcription activity % Inhibition” value [1] is reported as 40.7 ± 2.9%.
With Cn1ccc(-c2cnc3ccc(NC(=O)Nc4ccc(Br)cc4)cc3n2)n1 [39-062] the “TNFα induced NFκB transcription activity % Inhibition” value [1] was 33.0 ± 5.7%.
With Cn1cc(-c2cnc3ccc(NC(=O)Nc4ccc(F)cc4)cc3n2)cn1 [39-066] the “TNFα induced NFκB transcription activity % Inhibition” value [1] was 42.9 ± 9.8%.
For Cn1cc(-c2cnc3ccc(NC(=O)Nc4ccccc4)cc3n2)cn1 [39-071], the “TNFα induced NFκB transcription activity % Inhibition” value [1] was 31.2 ± 7.6%.
In the case of Cn1ccc(-c2cnc3cc(NC(=O)Nc4ccc(Br)cc4)ccc3n2)n1 [39-072], the “TNFα induced NFκB transcription activity % Inhibition” value [1] is reported as 46.8 ± 4.4%.
For Cn1cc(-c2cnc3ccc(NC(=O)Cc4ccc(Br)cc4)cc3n2)cn1 [39-076], the “TNFα induced NFκB transcription activity % Inhibition” value [1] was 36.1 ± 8.8%.
For Cc1nn(C)cc1-c1cnc2ccc(NC(=O)Nc3ccc(Br)cc3)cc2n1 [39-077], the “TNFα induced NFκB transcription activity % Inhibition” value [1] was 37.7 ± 5.1%.
With Cn1cc(-c2cnc3ccc(NC(=O)Nc4ccc([N+](=O)[O-])cc4)cc3n2)cn1 [39-084] the “TNFα induced NFκB transcription activity % Inhibition” value [1] was 36.4 ± 6.3%.
For Cc1ccc(NC(=O)Nc2ccc3ncc(-c4cnn(C)c4)nc3c2)cc1 [39-085], the “TNFα induced NFκB transcription activity % Inhibition” value [1] was 53.0 ± 2.9%.
For Cn1cc(-c2cnc3ccc(NC(=O)Nc4cccc(Br)c4)cc3n2)cn1 [39-086], the “TNFα induced NFκB transcription activity % Inhibition” value [1] was 88.9 ± 1.8%.
In the case of Cn1cc(-c2cnc3ccc(NC(=O)Nc4ccc(F)c(Br)c4)cc3n2)cn1 [39-100], the “TNFα induced NFκB transcription activity % Inhibition” value [1] is reported as 83.8 ± 1.6%, the “potency relative to 13-197” value ([1]; all the assays tested (FIG. 1 and FIG. 2)) is reported as “more potent than 13-197” and the GI50 (HCT116) is reported as 3.8 ± 1.2 µM. It also gave a GI50 (SW620) of 8.4 ± 2.3 µM, a GI50 (HT29) of 3.1 ± 0.2 µM and a GI50 (DLD1) of 8.4 ± 2.3 µM. The GI50 (MiaPaCa2) was 3.2 ± 0.3 µM, the GI50 (AsPC1) was 7.2 ± 2.6 µM and the GI50 (Suit2) was 4.5 ± 0.4 µM. For the same compound, the GI50 (S2013) was 4.1 ± 0.5 µM, the parent compound present ([2]; human liver S9 fraction, 60-minute incubation) was “More than 85%” and the microsomal CLint ([2]; human liver S9 fraction) was 1.59 µL/min/mg. The half-life [2] was 7.273 h, the metabolites detected ([2]; metabolite identification by LC-MS/MS, matrix not stated) was “In very small fraction glucuronidation, sulfonation, and demethylation” and the MRT inf ([3]; Balb/c, mouse, plasma, IV: 1 mg/kg) was 1.4 h. For the same compound, the half-life ([3]; Balb/c, mouse, plasma, IV: 1 mg/kg, read-out: t0.5 (elimination half-life) (converted)) was 3.9 h, the AUC(0-t) [3, 4] was 12400 ng·h/mL and the CL/F [3, 4] was 13.3 mL/min/kg. It also gave a Cmax [3, 4] of 2330 ng/mL, a Tmax [3, 4] of 2 h and a bioavailability ([3]; Balb/c, mouse, plasma, Oral: 10 mg/kg vs IV: 1 mg/kg) of 208%. For the same compound, the MRT inf [3, 4] was 3.9 h, the AUC(0-inf) ([3]; Balb/c, mouse, plasma, intravenous dose 1 mg/kg, read-out: area under the curve (AUC0-∞)) was 598 ng·h/mL and the MRT ([3]; Balb/c, mouse, plasma, intravenous dose 1 mg/kg, read-out: mean residence time (MRT)) was 1.4 h. It also gave an AUC(0-inf) ([3]; Balb/c, mouse, plasma, oral administration 10 mg/kg, read-out: AUC0-∞) of 12400 ng·h/mL, an MRT ([3]; Balb/c, mouse, plasma, oral administration 10 mg/kg, read-out: MRT) of 3.9 h and a C0-iv ([3]; IV: 1 mg/kg) of 709.9 ng/mL. For the same compound, the “CL/F (clearance)” value ([3]; IV: 1 mg/kg) was 27.8 mL/min/kg, the λZ ([3]; IV: 1 mg/kg) was 0.177 h⁻¹ and the t0.5 ([3]; Oral: 10 mg/kg) was 2.35 h. The λZ ([3]; Oral: 10 mg/kg) was 0.295 h⁻¹ and the colon tumor growth (HCT116 cancer cells) was “reduced colon tumorgrowth”.
For Cn1cc(-c2cnc3ccc(NC(=O)Nc4ccccc4Br)cc3n2)cn1 [39-102], the “TNFα induced NFκB transcription activity % Inhibition” value [1] was 62.4 ± 1.2%.
With Cn1cc(-c2cnc3ccc(NC(=O)Nc4ccc(F)c(C(F)(F)F)c4)cc3n2)cn1 [42-062] the “TNFα induced NFκB transcription activity % Inhibition” value [1] was 83.7 ± 0.3%.
In the case of Cn1cc(-c2cnc3ccc(NC(=O)Nc4cccc(Cl)c4)cc3n2)cn1 [42-064], the “TNFα induced NFκB transcription activity % Inhibition” value [1] is reported as 96.3 ± 1.5%.
For Cn1cc(-c2cnc3ccc(NC(=O)Nc4ccc(F)c(Cl)c4)cc3n2)cn1 [42-065], the “TNFα induced NFκB transcription activity % Inhibition” value [1] was 85.3 ± 2.8%.
For Cc1cccc(NC(=O)Nc2ccc3ncc(-c4cnn(C)c4)nc3c2)c1 [42-066], the “TNFα induced NFκB transcription activity % Inhibition” value [1] was “Inactive”.
With Cn1cc(-c2cnc3ccc(NC(=O)Nc4cccc(C(F)(F)F)c4)cc3n2)cn1 [42-071] the “TNFα induced NFκB transcription activity % Inhibition” value [1] was 80.5 ± 2.5%.
In the case of Cn1cc(-c2cnc3ccc(NC(=O)Nc4ccc5c(c4)OCO5)cc3n2)cn1 [42-072], the “TNFα induced NFκB transcription activity % Inhibition” value [1] is reported as “inactive”.
With Cn1cc(-c2cnc3ccc(NC(=O)Nc4ccc5c(c4)OCCO5)cc3n2)cn1 [42-073] the “TNFα induced NFκB transcription activity % Inhibition” value [1] was “inactive”.
In the case of Cc1cc(NC(=O)Nc2ccc3ncc(-c4cnn(C)c4)nc3c2)ccc1F [42-074], the “TNFα induced NFκB transcription activity % Inhibition” value [1] is reported as 10.4 ± 3.9%.
With COc1cccc(NC(=O)Nc2ccc3ncc(-c4cnn(C)c4)nc3c2)c1 [42-076] the “TNFα induced NFκB transcription activity % Inhibition” value [1] was 49.7 ± 2.6%.
In the case of Cn1cc(-c2cnc3ccc(NC(=O)Nc4ccc5sccc5c4)cc3n2)cn1 [42-077], the “TNFα induced NFκB transcription activity % Inhibition” value [1] is reported as “inactive”.
With COc1cc(NC(=O)Nc2ccc3ncc(-c4cnn(C)c4)nc3c2)ccc1F [42-078] the “TNFα induced NFκB transcription activity % Inhibition” value [1] was 33.5 ± 3.7%.
In the case of Cn1cc(-c2cnc3ccc(NC(=O)Nc4cccc(OC(F)(F)F)c4)cc3n2)cn1 [42-81B], the “TNFα induced NFκB transcription activity % Inhibition” value [1] is reported as 60.9 ± 2.9%.
In the case of Cn1cc(-c2cnc3ccc(NC(=O)Nc4ccc5c(c4)CCC5)cc3n2)cn1 [42-091], the “TNFα induced NFκB transcription activity % Inhibition” value [1] is reported as “inactive”.
In the case of Cn1cc(-c2cnc3ccc(NC(=O)Nc4ccc(F)c(OC(F)(F)F)c4)cc3n2)cn1 [42-096], the “TNFα induced NFκB transcription activity % Inhibition” value [1] is reported as 64.6 ± 3.3%.
With Cn1cc(-c2cnc3ccc(NC(=O)Nc4ccc5c(c4)CCO5)cc3n2)cn1 [42-097] the “TNFα induced NFκB transcription activity % Inhibition” value [1] was “inactive”.
